The numbers were not newly measured in patent US7989600B2, “Macrolide compounds containing biotin and photo-affinity group for macrolide target identification” (GlaxoSmithKline Istrazivacki Centar Zagreb D.O.O., priority 2005, dated 2011), which cites them from elsewhere.

For this data set, the system named is α1-acid glycoprotein from serum. As to conditions: dialysis in combination HPLC methods; Castearena et al., J Chemother. 1995.

In the case of `CC[C@H]1OC(=O)[C@H](C)[C@@H](O[C@H]2C[C@@](C)(OC)[C@@H](O)[C@H](C)O2)[C@H](C)[C@@H](O[C@@H]2O[C@H](C)C[C@H](N(C)C)[C@H]2O)[C@](C)(O)C[C@@H](C)CN(C)[C@H](C)[C@@H](O)[C@]1(C)O` [azithromycin], the “binding to α1-acid glycoprotein from serum” value was “specifically binds”.
